Values quoted from earlier work in patent publication US20160052938A1, “SPIRO[3H-INDOLE-3,2'-PYRROLIDIN]-2(1H)-ONE COMPOUNDS AND DERIVATIVES AS MDM2-P53 INHIBITORS” (Boehringer Ingelheim International GmbH, priority 2014, published 2016).

Test system: acute lymphoblastic leukemia (ALL) xenograft models with mixed-lineage leukemia (MLL) rearrangement
Settings: Carol et al. 2013; cited from earlier work

For CCOc1cc(C(C)(C)C)ccc1C1=N[C@@](C)(c2ccc(Cl)cc2)[C@@](C)(c2ccc(Cl)cc2)N1C(=O)N1CCN(CCCS(C)(=O)=O)CC1 [RG-7112], the efficacy is listed as “particularly efficacious”.
